Consider one compound from patent publication US4272507A, “Phenylaminothiophenacetic acids, their synthesis, compositions and use” (priority 1978, dated 1981).

In general, LD50 refers to the dose expected to kill half of the subjects tested. The low end stands for a more toxic substance, the high end for a less toxic substance.

The subject of data set [1] is formation of granulation tissue after subcutaneous implantation of cotton. The data set is described as follows: Chronic antiphlogistic action: cotton pellet test (formation of granulation tissue) in rats. Conditions: rats. The procedure:
Biol. Med., 111 (1962) 544]}, on chronic inflammatory processes {Cotton pellet test on rats [Winter et al.: J. Pharmacol. exp. Therap., 141 (1963) 369]} and on adjuvant arthritis [based on the method of Perrine et al., Brit. J. Pharmacol., 21 (1963) 127] is determined.
Experimental procedure for investigating the influence of the compounds to be tested on the formation of granulation tissue after implantation of cotton in rats (so-called cotton pellet method):
1 cotton pellet (manufacturer: Messrs. Hartmann/Heidenheim; cotton pellets size 2, No. 4865/2) which weighs 13.0±0.5 mg and has been impregnated beforehand with 0.1 ml of a solution of 0.5 mg of penicillin G and 0.8 mg of streptomycin sulfate/1 ml of distilled water is in each case implanted subcutaneously into the shoulder-blade region, on both sides, of male Sprague-Dawley rats (groups of 8 animals each; weight of each animal: 150 to 170 g) under diethyl ether anaesthesia and under sterile conditions. The cut skin is closed by means of clamps.
The compounds to be tested (in the form of the sodium salt in aqueous solution) or the corresponding amount (5 ml/kg/day) of tapwater (=control group) are administered orally each day on seven successive days. On the eighth day, the animals are killed and the cotton granules are exposed carefully, that is to say preserving the fibrous tissue capsule, dried (15 hours at 120°) and weighed. By substracting the weight of the cotton pellets, the amount of newly formed granulation tissue is obtained.
The percentage reduction in the average granuloma dry weight of a treated group compared with the control group (=100%) serves as a measure of the antiproliferative action of a compound.

Data set [2] has as its system yeast-induced fever in rats. The data set is described as follows: Antipyretic action: yeast-induced fever in rats. It is filed as in vivo, rats (female Sprague-Dawley). Conditions: rats. The procedure: The antipyretic action is determined by the influence of the compounds to be tested on yeast-induced fever in rats.
Hyperthermia is produced in female Sprague-Dawley rats (in groups of 5 animals; weight of each animal: 160 to 180 g) by subcutaneous injection (neck) of 10 ml/kg of a 20 percent strength aqueous brewer's yeast suspension (brewer's yeast "Heliosan"/Hefereformwerk Radolfzell). 24 hours after the yeast injection, the compounds to be tested are administered orally to the animals in a volume of liquid of 5 ml/kg, and a control group receives the corresponding amount of tapwater. The feed (Altromin®R, water ad libitum) was withdrawn from the rats 18 hours beforehand. The rats are kept at about 23° C.
The body temperature is recorded 1 hour before administration of the substance and at hourly intervals after administration of the substance.
[…] The body temperature is measured with a temperature probe (Tastomed H, Braun electronic).

Data set [3] concerns rats. Conditions: 7 days (Table 6).
The nature of data set [4]: in vivo. Conditions: rat, po.

Turning to `Cc1cccc(C)c1Nc1cscc1CC(=O)O` [Compound 9, 4-(2,6-dimethylanilino)-3-thiophenacetic acid], the “Therapeutic quotient LD50/ED20” value in data set [1] (cotton pellet test, LD50 7 days oral) is listed as > 10. The “Inhibition of the formation of granulation tissue after treatment for 7 days” value in data set [1] (7 x 3.0 mg/kg/day orally, sodium salt) came to 19%. In addition, the ED (1.5 degC) in data set [2] (Rattus norvegicus, po, perorally, single dose, read-out: ED1.5 (dose which causes a maximum reduction in yeast-induced fever of 1.5° C.)) worked out at 0.3 mg/kg. The results for the “Maximum reduction in yeast-induced fever over a period of 7 hours” value in data set [2] (single oral dose 0.1 mg/kg), in data set [2] (single oral dose 0.3 mg/kg) and in data set [2] (single oral dose 1 mg/kg) were 1.0 °C, 1.5 °C and 2.3 °C, respectively. The “Therapeutic quotient LD50/ED2.5” value in data set [2] (yeast-induced fever, LD50 7 days) is recorded as > 100. In data set [3], the “LD50, lethal action after administration for 7 days” value is listed as > 30 mg/kg/day. Further, the LD50 at 168 h in data set [4] is > 30 mg/kg.
